Assay results from patent US20210070747A1, “2(1H)-QUINOLINONE DERIVATIVE” (priority 2017, published 2021).
In brackets after ≈: the same amount, converted by molar mass. Structures can show the parent of a compound that is named as a salt. Where two headings read alike, the source gives them in different places.

What was measured:
[1] = target: T1, E. coli DNA gyrase (Escherichia coli, UniProt P0AES6); experiment: Test for evaluating the activity of inhibiting E. coli DNA gyrase enzyme (Method 1, supercoiling, Inspiralis enzyme); format: biochemical
T1 construct: made in house; host or cells: E. coli BL21 (DE3)
Method: Test Example 1-1 Test for Evaluating the Activity of Inhibiting E. coli DNA Gyrase Enzyme (Method 1)
The enzymatic activity of E. coli DNA gyrase was measured by a method comprising reacting DNA gyrase and its substrate, relaxed pBR322 (Inspiralis), in the presence of ATP and detecting the post-reaction supercoiled pBR322/relaxed pBR322 ratio with H19 (Profoldin).
Specifically, to 1 ng/μL of relaxed pBR322, E. coli DNA gyrase enzyme (Inspiralis) was added at a final concentration of 0.006 U/μL and the mixture was incubated for 60 minutes at room temperature. This reaction was carried out in 20 mmol/L tris-HCl buffered solution (pH 8.0) comprising 0.5 mmol/L ATP, 0.005% bridge 35, 35 mmol/L ammonium acetate, 8 mmol/L magnesium chloride, 4.6% glycerol, and 1 mmol/L dithiothreitol. To the reaction mixture, H19 was added to bring the reaction to an end; thereafter, the supercoiled pBR322/relaxed pBR322 ratio was detected at excitation wavelength/emission wavelength=485 nm/535 nm. An inhibition curve was obtained by allowing the analyte compound to be present at varying concentrations during the reaction described above. […] The test results of interest are shown in [Table 20-1] and [Table 20-2].

[2] = test system: N. gonorrhoeae ATCC 49226; experiment: Test for evaluating antibacterial activity (N. gonorrhoeae), broth microdilution MIC; format: cell-based; conditions: Neisseria gonorrhoeae, ATCC49226; 35° C., 24 hours, gonococcal broth
Outline: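 Broth microdilution in gonococcal broth with 1% supplement C, inoculum from overnight chocolate II agar culture at McFarland 0.5 diluted 5-fold.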

[3] = test system: E. Coli ATCC 25922; experiment: Test for evaluating antibacterial activity (E. coli), broth microdilution MIC; format: cell-based; conditions: Escherichia coli, ATCC25922; 35° C., 18 hours, cation-adjusted Mueller-Hinton medium
Outline: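 Broth microdilution per modified CLSI method in cation-adjusted Mueller-Hinton medium. Inoculum from overnight heart infusion agar growth, McFarland 0.5 suspension diluted 10-fold; incubation 35° C for 18 hours. MIC taken as lowest drug concentration with no visible growth.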

[4] = Method 1, read-out: E. Coli Gyrase supercoiling IC50

SMILES: CNc1cccc2cc(C(=O)NC3CCN(c4ncc(C(=O)O)s4)CC3)c(=O)[nH]c12 [Example 3, 2-(4-{[8-(methylamino)-2-oxo-1,2-dihydroquinoline-3-carbonyl]amino}piperidine-1-yl)-1,3-thiazole-5-carboxylic acid]
- IC50 [1, 4]: 0.124 µM
- MIC [2]: > 4 mg/L
- MIC [3]: > 64 mg/L

SMILES: CNc1cccc2cc(C(=O)NCc3noc(=O)[nH]3)c(=O)[nH]c12 [Example 14, 8-(methylamino)-2-oxo-N-[(5-oxo-4,5-dihydro-1,2,4-oxadiazole-3-yl)methyl]-1,2-dihydroquinoline-3-carboxamide]
- IC50 [1, 4]: 35.5 µM
- MIC [2]: > 4 mg/L

SMILES: CNc1cccc2cc(C(=O)Nc3cnc(N4CCC(N5CCN(CCO)CC5)CC4)nc3)c(=O)[nH]c12 [Example 42, N-(2-{4-[4-(2-hydroxyethyl)piperazine-1-yl]piperidine-1-yl}pyrimidine-5-yl)-8-(methylamino)-2-oxo-1,2-dihydroquinoline-3-carboxamide]
- IC50 [1, 4]: 0.0736 µM
- MIC [3]: > 64 mg/L

SMILES: CNc1cccc2cc(C(=O)Nc3ccc(C(=O)N4CCOCC4)cc3)c(=O)[nH]c12 [Example 43, 8-(methylamino)-N-[4-(morpholine-4-catbonyl)phenyl]-2-oxo-1,2-dihydroquinoline-3-carboxamide]
- IC50 [1, 4]: 0.176 µM
- MIC [3]: > 32 mg/L

SMILES: CNc1cccc2cc(C(=O)Nc3ccc(C(=O)O)cc3OCCN3CCN(C)CC3)c(=O)[nH]c12.Cl [Example 44, 4-{[8-(methylamino)-2-oxo-1,2-dihydroquinoline-3-carbonyl]amino}-3-[2-(4-methylpiperazine-1-yl)ethoxy] benzoic acid-hydrochloride]
- IC50 [1]: 0.373 µM
- MIC [3]: > 16 mg/L

SMILES: CNc1cccc2cc(C(=O)Nc3cnc(N4CCC(N)CC4)nc3)c(=O)[nH]c12.O=CO [Example 45, N-[2-(4-aminopiperidine-1-yl)pyrimidine-5-yl]-8-(methylamino)-2-oxo-1,2-dihydroquinoline-3-carboxamide-formate]
- IC50 [1]: 0.101 µM
- MIC [3]: > 16 mg/L

SMILES: CNc1cccc2cc(C(=O)Nc3ccc(C(=O)NCCCN)cc3)c(=O)[nH]c12.Cl [Example 46, N-{4-[(3-aminopropyl)carbamoyl]phenyl}-8-(methylamino)-2-oxo-1,2-dihydroquinoline-3-carboxamide-hydrochloride]
- IC50 [1]: 0.00747 µM
- MIC [3]: > 1 mg/L

SMILES: CNc1cccc2cc(C(=O)Nc3ccc(C(=O)NCC4CCNCC4)cc3)c(=O)[nH]c12.O=CO [Example 47, 8-(methylamino)-2-oxo-N-(4-{[(piperidine-4-yl)methyl]carbamoyl}phenyl)-1,2-dihydroquinoline-3-carboxamide-formate]
- IC50 [1]: 0.0107 µM
- MIC [3]: > 32 mg/L

SMILES: CNc1cccc2cc(C(=O)Nc3ccc(C(=O)O)cc3OCCCN)c(=O)[nH]c12.O=CO [Example 48, 3-(3-aminopropoxy)-4-{[8-(methylamino)-2-oxo-1,2-dihydroquinoline-3-carbonyl]amino} benzoic acid-formate]
- IC50 [1]: 0.286 µM
- MIC [3]: > 16 mg/L

SMILES: CNc1cccc2cc(C(=O)Nc3ccc(C(=O)NCCC[C@H](N)C(=O)O)cc3)c(=O)[nH]c12 [Example 49, N5-(4-{[8-(methylamino)-2-oxo-1,2-dihydroquinoline-3-carbonyl]amino}benzoyl)-L-ornithine]
- IC50 [1, 4]: 0.0204 µM
- MIC [3]: > 8 mg/L

SMILES: CNc1cc(F)cc2cc(C(=O)Nc3cnc(NCCN4CCN(C)CC4)nc3)c(=O)[nH]c12 [Example 51, 6-fluoro-8-(methylamino)-N-(2-{[2-(4-methylpiperazine-1-yl)ethyl]amino}pyrimidine-5-yl)-2-oxo-1,2-dihydroquinoline-3-carboxamide]
- IC50 [1, 4]: 0.00546 µM
- MIC [3]: 16 mg/L (≈ 35.2 µM)

SMILES: CNc1cc(F)cc2cc(C(=O)Nc3cnc(C(=O)NCCN4CCOCC4)nc3)c(=O)[nH]c12 [Example 53, 6-fluoro-8-(methylamino)-N-(2-{[2-(morpholine-4-yl)ethyl]carbamoyl}pyrimidine-5-yl)-2-oxo-1,2-dihydroquinoline-3-carboxamide]
- IC50 [1, 4]: 0.00149 µM
- MIC [3]: 0.25 mg/L (≈ 0.533 µM)

SMILES: CNc1cc(F)cc2cc(C(=O)Nc3cnc(N4CCNCC4)nc3)c(=O)[nH]c12.Cl [Example 55, 6-Fluoro-8-(methylamino)-2-oxo-N-[2-(piperazin-1-yl)pyrimidin-5-yl]-1,2-dihydroquinoline-3-carboxamide-hydrochloride]
- IC50 [1]: 0.0147 µM
- MIC [3]: > 16 mg/L

SMILES: CNc1cc(F)cc2cc(C(=O)Nc3ccc(C(=O)NCC4CCN(CCN)CC4)cc3)c(=O)[nH]c12 [Example 57, N-(4-({[1-(2-aminoethyl)piperidine-4-yl]methyl}carbamoyl)phenyl]-6-fluoro-8-(methylamino)-2-oxo-1,2-dihydroquinoline-3-carboxamide-dihydrochloride]
- IC50 [1, 4]: 0.00362 µM
- MIC [3]: > 16 mg/L

SMILES: CNc1cc(F)cc2cc(C(=O)Nc3cnc(NCCN)nc3)c(=O)[nH]c12.O=CO [Example 59, N-{2-[(2-aminoethyl)amino]pyrimidine-5-yl}-6-fluoro-8-(methylamino)-2-oxo-1,2-dihydroquinoline-3-carboxamide-formate]
- IC50 [1]: 0.0147 µM
- MIC [3]: > 2 mg/L

SMILES: CNc1cc(F)cc2cc(C(=O)Nc3cnc(N4CC(N)C4)nc3)c(=O)[nH]c12.O=CO [Example 60, N-[2-(3-aminoazetidine-1-yl)pyrimidine-5-yl]-6-fluoro-8-(methylamino)-2-oxo-1,2-dihydroquinoline-3-carboxamide-formate]
- IC50 [1]: 0.0118 µM
- MIC [3]: > 32 mg/L

SMILES: CNc1cc(F)cc2cc(C(=O)Nc3cnc(C(=O)OC)nc3)c(=O)[nH]c12 [Example 63, methyl 5-{[6-fluoro-8-(methylamino)-2-oxo-1,2-dihydroquinoline-3-carbonyl]amino}pyrimidine-2-carboxylate]
- IC50 [1]: 0.00144 µM
- MIC [3]: > 16 mg/L

SMILES: CNc1cc(F)cc2cc(C(=O)NCCc3cccnc3)c(=O)[nH]c12 [Example 64, 6-fluoro-8-(methylamino)-2-oxo-N-[2-(pyridine-3-yl)ethyl]-1,2-dihydroquinoline-3-carboxamide]
- IC50 [1, 4]: 0.0447 µM
- MIC [3]: > 8 mg/L

SMILES: CNc1cc(F)cc2cc(C(=O)Nc3ccc(C(=O)N(C)CCN4CCOCC4)cc3)c(=O)[nH]c12 [Example 67, 6-fluoro-8-(methylamino)-N-(4-{methyl[2-(morpholine-4-yl)ethyl]carbamoyl}phenyl)-2-oxo-1,2-dihydroquinoline-3-carboxamide]
- IC50 [1, 4]: 0.00636 µM
- MIC [3]: > 16 mg/L

SMILES: CNc1cc(F)cc2cc(C(=O)Nc3ccc(C(=O)NCCN)cc3)c(=O)[nH]c12.Cl [Example 68, N-(4-[(2-aminoethyl)carbamoyl]phenyl}-6-fluoro-8-(methylamino)-2-oxo-1,2-dihydroquinoline-3-carboxamide-hydrochloride]
- IC50 [1]: 0.0094 µM
- MIC [3]: > 8 mg/L

SMILES: CNc1cc(F)cc2cc(C(=O)Nc3cnc(NCCN4CCOCC4)nc3)c(=O)[nH]c12 [Example 69, 6-fluoro-8-(methylamino)-N-(2-{[2-(morpholine-4-yl)ethyl]amino}pyrimidine-5-yl)-2-oxo-1,2-dihydroquinoline-3-carboxamide]
- IC50 [1, 4]: 0.007 µM
- MIC [3]: 8 mg/L (≈ 18.1 µM)

SMILES: CNc1cc(F)cc2cc(C(=O)Nc3cnc(C(=O)NCCO)nc3)c(=O)[nH]c12 [Example 71, 6-Fluoro-N-[2-[(2-hydroxyethyl)carbamoyl]pyrimidin-5-yl]-8-(methylamino)-2-oxo-1,2-dihydroquinoline-3-carboxamide]
- IC50 [1, 4]: 0.00088 µM
- MIC [3]: > 8 mg/L

SMILES: CNc1cc(F)cc2cc(C(=O)Nc3cnccc3C)c(=O)[nH]c12 [Example 73, 6-fluoro-8-(methylamino)-N-(4-methylpyridine-3-yl)-2-oxo-1,2-dihydroquinoline-3-carboxamide]
- IC50 [1, 4]: 0.023 µM
- MIC [3]: > 8 mg/L

SMILES: CNc1cc(F)cc2cc(C(=O)Nc3ccc(C(=O)O)cc3CNCCO)c(=O)[nH]c12 [Example 74, 4-{[6-fluoro-8-(methylamino)-2-oxo-1,2-dihydroquinoline-3-catbonyl]amino}-3-{[(2-hydroxyethyl)amino]methyl} benzoic acid-hydrochloride]
- IC50 [1, 4]: 0.129 µM
- MIC [3]: > 64 mg/L

SMILES: CNc1cc(F)cc2cc(C(=O)Nc3ccc(C(=O)NCCN4CCOCC4)cc3CN(C)C3CCCCC3)c(=O)[nH]c12 [Example 75, N-(2-{[cyclohexyl(methyl)amino]methyl}-4-{[2-(morpholine-4-yl)ethyl]carbamoyl}phenyl)-6-fluoro-8-(methylamino)-2-oxo-1,2-dihydroquinoline-3-carboxamide]
- IC50 [1, 4]: 0.00025 µM
- MIC [3]: 8 mg/L (≈ 13.5 µM)

SMILES: CNc1cc(F)cc2cc(C(=O)Nc3cnc(OCCN4CCOCC4)nc3)c(=O)[nH]c12 [Example 80, 6-fluoro-8-(methylamino)-N-{2-[2-(morpholine-4-yl)ethoxy]pyrimidine-5-yl}-2-oxo-1,2-dihydroquinoline-3-carboxamide]
- IC50 [1, 4]: 0.0025 µM
- MIC [3]: > 16 mg/L
